Consider four compounds from ChEMBL document CHEMBL5465560, “Selectivity Literature for EUbOPEN Chemogenomic Library” (2024).

Assay [1] addresses T1, Tyrosine-protein kinase Mer (Homo sapiens) (UniProt Q12866).
T1 sequence (whole entry): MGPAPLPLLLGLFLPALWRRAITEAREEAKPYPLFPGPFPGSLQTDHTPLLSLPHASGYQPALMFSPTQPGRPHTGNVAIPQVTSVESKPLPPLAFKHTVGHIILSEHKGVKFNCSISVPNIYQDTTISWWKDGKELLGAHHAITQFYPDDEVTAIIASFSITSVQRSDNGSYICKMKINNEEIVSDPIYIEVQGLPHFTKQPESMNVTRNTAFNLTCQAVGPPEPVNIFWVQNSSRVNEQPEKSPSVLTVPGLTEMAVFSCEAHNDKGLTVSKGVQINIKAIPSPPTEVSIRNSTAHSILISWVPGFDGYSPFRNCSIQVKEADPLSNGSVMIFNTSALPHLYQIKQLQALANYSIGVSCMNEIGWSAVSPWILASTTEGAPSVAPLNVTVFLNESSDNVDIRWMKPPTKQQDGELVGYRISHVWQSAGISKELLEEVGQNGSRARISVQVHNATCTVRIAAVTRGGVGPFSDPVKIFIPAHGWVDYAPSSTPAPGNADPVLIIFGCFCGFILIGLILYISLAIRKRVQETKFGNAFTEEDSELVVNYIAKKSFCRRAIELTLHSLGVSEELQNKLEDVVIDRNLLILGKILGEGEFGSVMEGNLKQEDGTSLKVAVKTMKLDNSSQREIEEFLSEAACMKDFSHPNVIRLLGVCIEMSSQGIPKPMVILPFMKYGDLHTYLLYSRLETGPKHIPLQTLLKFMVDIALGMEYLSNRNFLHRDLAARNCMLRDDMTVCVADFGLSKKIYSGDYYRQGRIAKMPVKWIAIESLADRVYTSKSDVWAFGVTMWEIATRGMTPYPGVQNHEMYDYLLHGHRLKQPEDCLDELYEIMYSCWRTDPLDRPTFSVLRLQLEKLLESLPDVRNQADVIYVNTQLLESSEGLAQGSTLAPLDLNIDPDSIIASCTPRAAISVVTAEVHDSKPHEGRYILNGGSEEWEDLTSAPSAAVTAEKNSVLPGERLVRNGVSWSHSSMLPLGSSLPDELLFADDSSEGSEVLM
Put plainly: Selectivity interaction (KinomeScan (DiscoverX)) EUB0000092b MERTK. To be noted: at 10 µM.

Assay [2] concerns the target T2, Muscle, skeletal receptor tyrosine-protein kinase (Homo sapiens) (UniProt O15146).
T2 sequence (whole entry): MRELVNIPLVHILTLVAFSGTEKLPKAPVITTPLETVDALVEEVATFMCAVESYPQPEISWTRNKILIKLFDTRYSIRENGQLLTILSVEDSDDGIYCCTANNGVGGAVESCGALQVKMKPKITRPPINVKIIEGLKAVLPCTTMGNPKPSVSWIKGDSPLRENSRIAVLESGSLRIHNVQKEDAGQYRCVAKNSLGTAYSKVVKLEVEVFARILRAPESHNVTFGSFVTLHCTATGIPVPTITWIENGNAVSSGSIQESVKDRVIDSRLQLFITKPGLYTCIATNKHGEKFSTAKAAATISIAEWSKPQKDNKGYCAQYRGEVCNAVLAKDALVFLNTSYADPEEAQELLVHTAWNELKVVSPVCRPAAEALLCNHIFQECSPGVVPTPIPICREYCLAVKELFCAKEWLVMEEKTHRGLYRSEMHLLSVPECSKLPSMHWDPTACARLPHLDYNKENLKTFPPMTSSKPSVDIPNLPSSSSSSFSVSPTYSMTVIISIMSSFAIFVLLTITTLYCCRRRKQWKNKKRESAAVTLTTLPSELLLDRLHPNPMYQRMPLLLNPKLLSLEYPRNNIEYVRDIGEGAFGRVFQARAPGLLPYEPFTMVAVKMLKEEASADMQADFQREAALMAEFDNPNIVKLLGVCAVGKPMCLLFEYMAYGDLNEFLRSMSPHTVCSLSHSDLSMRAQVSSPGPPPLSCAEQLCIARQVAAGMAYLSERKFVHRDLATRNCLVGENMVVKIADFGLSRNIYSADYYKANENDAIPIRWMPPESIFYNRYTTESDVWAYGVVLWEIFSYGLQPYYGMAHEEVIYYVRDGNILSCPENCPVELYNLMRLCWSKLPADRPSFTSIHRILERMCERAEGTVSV
Put plainly: Selectivity interaction (KinomeScan (DiscoverX)) EUB0000045b MUSK.

The target of assay [3] is Serine/threonine-protein kinase B-raf (Homo sapiens) (UniProt P15056). Put plainly: (§1) Selectivity interaction (KinomeScan (DiscoverX)) EUB0000607a BRAF. To be noted: at 10 µM.
Chain of Serine/threonine-protein kinase B-raf (Homo sapiens) (P15056 whole entry): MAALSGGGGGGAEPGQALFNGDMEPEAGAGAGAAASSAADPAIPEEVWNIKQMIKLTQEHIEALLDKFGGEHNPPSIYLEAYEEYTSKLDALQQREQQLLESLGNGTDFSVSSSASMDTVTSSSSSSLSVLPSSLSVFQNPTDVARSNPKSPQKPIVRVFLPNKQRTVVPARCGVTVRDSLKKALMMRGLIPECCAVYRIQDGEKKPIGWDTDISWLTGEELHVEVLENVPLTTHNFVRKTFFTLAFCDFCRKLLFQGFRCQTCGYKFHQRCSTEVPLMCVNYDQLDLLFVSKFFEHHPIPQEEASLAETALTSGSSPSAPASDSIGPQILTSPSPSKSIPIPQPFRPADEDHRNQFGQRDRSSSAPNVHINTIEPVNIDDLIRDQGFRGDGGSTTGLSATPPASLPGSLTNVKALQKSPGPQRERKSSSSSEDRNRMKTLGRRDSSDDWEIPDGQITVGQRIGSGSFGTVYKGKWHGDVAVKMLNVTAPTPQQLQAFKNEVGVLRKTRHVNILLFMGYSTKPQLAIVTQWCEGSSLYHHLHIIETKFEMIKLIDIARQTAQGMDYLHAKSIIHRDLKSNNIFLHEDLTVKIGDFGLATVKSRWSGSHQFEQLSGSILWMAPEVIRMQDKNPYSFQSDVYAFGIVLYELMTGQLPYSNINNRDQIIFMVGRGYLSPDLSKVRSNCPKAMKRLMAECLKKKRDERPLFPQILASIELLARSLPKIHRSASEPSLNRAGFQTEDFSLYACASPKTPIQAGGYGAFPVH
Assay [4] relates to Serine/threonine-protein kinase B-raf (Homo sapiens), P15056 [V600E]. The assay is described as §1. To be noted: at 10 µM.
Chain of Serine/threonine-protein kinase B-raf (Homo sapiens), P15056 [V600E] (P15056 whole entry V600E): as the sequence (P15056 whole entry) above, with V600E counted along it
In assay [5] the target is T3, Mitogen-activated protein kinase kinase kinase kinase 2 (Homo sapiens) (UniProt Q12851).
T3 sequence (whole entry): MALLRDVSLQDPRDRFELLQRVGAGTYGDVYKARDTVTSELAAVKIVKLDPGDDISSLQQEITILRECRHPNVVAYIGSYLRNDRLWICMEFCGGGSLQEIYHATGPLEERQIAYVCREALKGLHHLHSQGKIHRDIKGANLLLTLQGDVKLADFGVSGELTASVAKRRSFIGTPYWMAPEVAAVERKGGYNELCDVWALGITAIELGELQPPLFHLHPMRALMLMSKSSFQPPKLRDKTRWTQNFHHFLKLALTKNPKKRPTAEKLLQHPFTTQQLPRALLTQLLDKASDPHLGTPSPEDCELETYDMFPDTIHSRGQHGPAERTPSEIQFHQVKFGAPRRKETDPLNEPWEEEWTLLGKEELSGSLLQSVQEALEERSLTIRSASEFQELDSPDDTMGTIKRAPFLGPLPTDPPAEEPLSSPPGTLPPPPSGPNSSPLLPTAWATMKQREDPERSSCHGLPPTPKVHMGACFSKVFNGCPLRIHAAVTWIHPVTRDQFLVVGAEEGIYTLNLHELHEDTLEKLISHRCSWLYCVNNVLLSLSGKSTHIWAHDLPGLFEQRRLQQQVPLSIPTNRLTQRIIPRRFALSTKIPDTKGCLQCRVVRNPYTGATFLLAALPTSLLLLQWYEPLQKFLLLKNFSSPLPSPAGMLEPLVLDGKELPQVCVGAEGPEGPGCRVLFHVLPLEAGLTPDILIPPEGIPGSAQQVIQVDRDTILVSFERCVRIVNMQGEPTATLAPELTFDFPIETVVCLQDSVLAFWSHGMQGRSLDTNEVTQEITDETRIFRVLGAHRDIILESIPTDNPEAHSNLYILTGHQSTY
The assay can be described thus: Selectivity interaction (Kinase panel (literature)) EUB0001199aCl MAP4K2. To be noted: at 1 µM.

In assay [1], `CCC(=O)N1CCN(c2ccc(-n3c(=O)ccc4cnc5ccc(-c6cnc7ccccc7c6)cc5c43)cc2C(F)(F)F)CC1` showed a % of control of 53%.

`C=CC(=O)Nc1cc(-n2c(=O)ccc3cnc4ccc(-c5ccc(NS(C)(=O)=O)cc5)cc4c32)ccc1C`: the % of control stood at 100% in assay [2] (at 1 µM) and 82% in assay [2] (at 10 µM). Consider `CNC(=O)Nc1ccc(-c2nc(N3CC4CCC(C3)O4)c3cnn(C4CCC5(CC4)OCCO5)c3n2)cc1`, for which the % of control in assay [3] and in assay [4] was 100% each time.

The compound `CN1Cc2nccc(-c3cn(C)nc3-c3ccc(F)cc3)c2C1=O` had a % of inhibition in assay [5] of 4%.
